From ChEMBL document CHEMBL1275297, “Homology modeling and molecular dynamics of CYP1A1 and CYP2B1 to explore the metabolism of aryl derivatives by docking and experimental assays” (Eur J Med Chem, 2010)

Experiments:
[1] = Binding affinity to rat CYP2B1-heme complex
[2] = Binding affinity to human CYP1A1-heme complex
Cytochrome P450 2B1 = target: T1, Cytochrome P450 2B1 (Rattus norvegicus, UniProt P00176); test: Binding affinity to rat CYP2B1; assay type: ADME
T1 sequence (P00176 whole entry): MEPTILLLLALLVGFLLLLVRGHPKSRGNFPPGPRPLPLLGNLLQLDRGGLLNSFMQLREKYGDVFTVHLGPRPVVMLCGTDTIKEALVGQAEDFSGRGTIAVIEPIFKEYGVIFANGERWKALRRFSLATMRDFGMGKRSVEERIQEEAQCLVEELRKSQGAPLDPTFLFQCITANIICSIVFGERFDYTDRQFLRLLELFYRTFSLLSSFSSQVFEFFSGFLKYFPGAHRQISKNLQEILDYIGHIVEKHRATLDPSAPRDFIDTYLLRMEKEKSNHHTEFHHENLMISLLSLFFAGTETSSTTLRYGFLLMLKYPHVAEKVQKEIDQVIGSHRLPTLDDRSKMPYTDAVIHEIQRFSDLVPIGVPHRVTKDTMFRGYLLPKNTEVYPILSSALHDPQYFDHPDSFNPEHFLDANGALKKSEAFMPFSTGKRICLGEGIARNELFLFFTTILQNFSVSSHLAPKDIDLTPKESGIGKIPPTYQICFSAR

Cytochrome P450 1A1 = target: T2, Cytochrome P450 1A1 (Homo sapiens, UniProt P04798); test: Binding affinity to human CYP1A1; assay type: ADME
T2 sequence (P04798 whole entry): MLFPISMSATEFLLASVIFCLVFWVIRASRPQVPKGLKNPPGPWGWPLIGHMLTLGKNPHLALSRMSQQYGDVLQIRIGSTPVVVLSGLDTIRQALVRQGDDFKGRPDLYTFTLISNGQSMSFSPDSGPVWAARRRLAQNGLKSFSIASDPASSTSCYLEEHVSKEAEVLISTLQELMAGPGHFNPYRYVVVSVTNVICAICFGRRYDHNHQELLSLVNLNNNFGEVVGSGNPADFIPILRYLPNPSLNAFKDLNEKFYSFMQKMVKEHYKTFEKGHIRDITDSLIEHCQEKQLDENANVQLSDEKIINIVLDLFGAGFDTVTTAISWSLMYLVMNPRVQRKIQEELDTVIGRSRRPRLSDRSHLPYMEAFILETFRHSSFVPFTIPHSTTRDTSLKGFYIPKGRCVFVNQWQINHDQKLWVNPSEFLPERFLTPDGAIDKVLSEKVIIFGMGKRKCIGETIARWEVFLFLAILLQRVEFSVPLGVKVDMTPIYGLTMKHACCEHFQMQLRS

Row | Compound | Kd [1] [µM] | Kd [2] [µM] | Kd (Cytochrome P450 2B1) [µM] | Kd (Cytochrome P450 1A1) [µM]
1 | O=C(O)CCC(=O)Nc1ccc(O)cc1 | 1.77 | 0.789 | 1.12 | 2.25
2 | O=C1CCC(=O)N1c1ccc(O)cc1 | 1.57 | 3.96 | 24 | 13.5
3 | CC(=O)Nc1ccc(O)cc1 [ACETAMINOPHEN] | 6.64 | 5.79 |  | 19.1
